# Measurements reported in patent US20240042045A1, “NANOPARTICLES CONTAINING MULTIPLE CLEAVABLE PRODUGS FOR CANCER THERAPY” (The University of Chicago, priority 2020, published 2024).
# Where a name gives a salt, the structure may show the parent alone. Read-outs that look alike come from different tables or passages of the source.
# Legend:
# [1] = system: H460 cells; assay: In vitro cytotoxicity in H460 cells (MTS assay); type: cell-based, human
# [2] = system: 4T1 cells; assay: In vitro cytotoxicity in 4T1 cells (MTS assay); type: cell-based, murine; conditions: 48 h
# [3] = system: apoptosis/necrosis; assay: Apoptosis/necrosis analysis of cells treated with Carb and/or DTX; type: cell-based; conditions: 10 μM Carb and/or DTX
# Procedure: Apoptosis/necrosis analysis was also performed on cells treated with 10 μM Carb and/or DTX by flow cytometry.
# [4] = system: LL/2 lung cancer cells; assay: Cytotoxicity of Chol-PTX; type: cell-based
# [5] = system: LDL; assay: Isothermal titration calorimetry (ITC) binding to LDL
# Procedure: (§1) LDL is the key transporter of cholesterol and cholesterol esters to peripheral cells. It was hypothesized that LDL would strongly bind to Chol-SN38 to enhance its delivery to tumors via LDLR-mediated endocytosis.
# Apparent LDL binding affinity of two control particles, OxPt NCP without chol and Chol-SN38 micelle (without the NCP core) was determined to understand which components of the particles bind to LDL.
# [6] = target: albumin (Homo sapiens, UniProt P02768); assay: ITC binding to albumin
# Description: as §1
# [7] = system: lipoproteins; assay: Distribution in lipoproteins after incubation in rat plasma (NaBr gradient ultracentrifugation, LC-MS); conditions: 37° C., 3 h, Chol-SN38 measured for OxPt/SN38
# Description: Lipoproteins were separated based on their densities by NaBr gradient ultracentrifugation.
# [8] = system: CT26 cells; assay: In vitro cytotoxicity in CT26 cells; type: cell-based, murine
# Procedure: (§2) The cell viability was measured by […].
# [9] = system: MC38 cells; assay: In vitro cytotoxicity in MC38 cells; type: cell-based, murine
# Procedure: as §2
# [10] = system: KPC cells; assay: In vitro cytotoxicity in KPC cells (MTS assay); type: cell-based, murine; conditions: 48 h
# Procedure: (§3) The cell viability was measured by MTS assay.
# [11] = system: Panc02 cells; assay: In vitro cytotoxicity in Panc02 cells (MTS assay); type: cell-based, murine
# Procedure: as §3
# [12] = system: LDL; assay: Binding kinetics to LDL in rat plasma at 37° C.; conditions: for binding to LDL: Chol-SN38 measured for Chol-SN38 and OxPt/SN38
# [13] = system: CT26 and MC38 cells; assay: In vitro cytotoxicity, values not assigned to one colon cancer cell line
# [14] = Dynamic light scattering (DLS) of particles; type: physicochemical; conditions: DLS of OxPt/GEM-core nanoparticles made with the named Chol-disulfide prodrug
# Procedure: Synthesis and characterization of OxPt/GEM/SN38 core-shell nanoparticle NCP particles with OxPt-bp and gemcitabine monophosphate (GMP) in the core and Chol-SN38 on the shell, referred to as “OxPt/GMP/SN38,” was synthesized in two steps. […] An aqueous solution of Zn(NO3)2 (60 mg, 600 mg/mL) was added to a 5 mL of 0.3M Triton X-100/1.5M 1-hexanol in cyclohexane and stirred vigorously for 5 min. The Zn(NO3)2-containing microemulsion was added dropwise to the OxPt-bp-containing microemulsion and stirred vigorously for 30 min at room temperature. After the addition of 10 mL ethanol, OxPt-bare was obtained by centrifugation at 11,628×g. The resulting pellet was washed twice with THF/ethanol and finally re-dispersed in THF. The loadings of OxPt in the particles were determined by ICP-MS (Agilent 7700x, Agilent Technologies, Santa Clara, California, United States of America) after digestion with nitric acid. The particle size and zeta potential were determined by dynamic light scattering using a Zetasizer (Nano ZS, Malvern, United Kingdom).
# [15] = system: CT26 and MC38 cells; assay: cells; conditions: Mus musculus
# [16] = system: apoptosis/necrosis; assay: Apoptosis/necrosis analysis by flow cytometry (Annexin V / PI); type: cell-based; conditions: for percentage of apoptosis: flow cytometry
# Procedure: Apoptosis/necrosis analysis was also performed on OxPt and/or SN38 treated cells by flow cytometry.
# [17] = system: CT26 and MC38 cells
# [18] = Conversion of SN38-TMS to SN38 at pH 5.5 and 7.4; type: physicochemical; conditions: for SN38-TMS converted to SN38: pH=5.5, 37° C.
# Procedure: SN38-TMS was incubated in acidic conditions mimicking endosomes at 37° C. At pH=5.5, 70% SN38-TMS was converted to SN38 in 24 h and 92% […] SN38-TMS was converted to SN38 in 48 h.
# [19] = cited from earlier work
# [20] = CT26 cells, 48 h, for OxPt/SN38 the OxPt IC50, read-out: IC50
# [21] = MC38 cells, 48 h, for OxPt/SN38 the OxPt IC50, read-out: IC50
# [22] = Panc02 cells, 48 h, read-out: IC50
# albumin, sequence (P02768 25-609, species assumed): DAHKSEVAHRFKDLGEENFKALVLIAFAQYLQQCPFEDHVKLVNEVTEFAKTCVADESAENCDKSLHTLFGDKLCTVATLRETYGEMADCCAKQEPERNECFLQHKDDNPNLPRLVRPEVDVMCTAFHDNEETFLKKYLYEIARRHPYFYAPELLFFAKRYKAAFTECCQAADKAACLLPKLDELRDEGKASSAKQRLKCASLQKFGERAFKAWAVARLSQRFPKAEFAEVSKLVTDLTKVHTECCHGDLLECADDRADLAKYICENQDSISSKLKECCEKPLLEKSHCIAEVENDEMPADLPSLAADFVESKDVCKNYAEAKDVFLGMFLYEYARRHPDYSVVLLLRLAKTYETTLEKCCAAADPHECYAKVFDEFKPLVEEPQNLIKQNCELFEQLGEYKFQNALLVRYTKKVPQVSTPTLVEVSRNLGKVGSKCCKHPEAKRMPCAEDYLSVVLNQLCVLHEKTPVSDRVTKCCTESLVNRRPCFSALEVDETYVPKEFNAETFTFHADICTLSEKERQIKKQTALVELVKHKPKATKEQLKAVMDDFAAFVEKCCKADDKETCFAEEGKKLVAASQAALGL
compound,measurement,setting,value
"N.N.O=C([O-])C1(C(=O)[O-])CCC1.[Pt+2] [Carb, carboplatin]",IC50,[1]; 48 h,3.9 µM
same,IC50,[2],0.91 µM
same,percentage of apoptosis,[3],2.90%
"CC(=O)O[C@@]12CO[C@@H]1C[C@H](O)[C@@]1(C)C(=O)[C@H](O)C3=C(C)[C@@H](OC(=O)[C@H](OC(=O)OCOC(=O)CCC(=O)O[C@H]4CC[C@@]5(C)C(=CC[C@H]6[C@@H]7CC[C@H]([C@H](C)CCCC(C)C)[C@@]7(C)CC[C@@H]65)C4)[C@@H](NC(=O)OC(C)(C)C)c4ccccc4)C[C@](O)([C@@H](OC(=O)c4ccccc4)[C@H]21)C3(C)C [Chol-DTX, Cholesterol-Docetaxel]",IC50,"[1]; Homo sapiens, NCI-H460, 48 h",11.4 µM
same,IC50,[2]; Mus musculus,15.3 µM
"CC(=O)O[C@H]1C(=O)[C@]2(C)[C@@H](OC(=O)OCOC(=O)CCC(=O)O[C@H]3CC[C@@]4(C)C(=CC[C@H]5[C@@H]6CC[C@H]([C@H](C)CCCC(C)C)[C@@]6(C)CC[C@@H]54)C3)C[C@H]3OC[C@@]3(OC(C)=O)[C@H]2[C@H](OC(=O)c2ccccc2)[C@]2(O)C[C@H](OC(=O)[C@H](O)[C@@H](NC(=O)c3ccccc3)c3ccccc3)C(C)=C1C2(C)C [Chol-PTX, Cholesterol-Paclitaxel]",IC50,[4],3.95 µM
"CCc1c2c(nc3ccc(OC(=O)OCOC(=O)CCC(=O)O[C@H]4CC[C@@]5(C)C(=CC[C@H]6[C@@H]7CC[C@H]([C@H](C)CCCC(C)C)[C@@]7(C)CC[C@@H]65)C4)cc13)-c1cc3c(c(=O)n1C2)COC(=O)[C@@]3(CC)O[Si](C)(C)C [Chol-SN38, 7-ethyl-10-(((((cholest-5-en-3-oxy)-4-oxobutanoyl)oxy)methoxy)-carbonyl)oxyl-20-O-trimethylsilyl camptothecin]",Ka to LDL relative to binding affinity to albumin,[5],> 2000 times
same,binding constant (Ka) to LDL,"[5]; ITC, apparent Ka for the particle",(4.97±0.24)×10^5 M^−1
same,Binding affinity Ka,[5]; protein LDL,49.7 ± 2.43 10^4 M^−1
same,Kd,[6],4440 µM
same,distribution in HDL,[7],5%
same,distribution in LDL fraction,[7],86%
same,distribution in VLDL,[7],9%
same,IC50,"[8]; Mus musculus, CT26, 48 h, CT26 cells, 48 h, for OxPt/SN38 the OxPt IC50",7.41 ± 1.03 µM
same,IC50,"[9]; Mus musculus, MC-38, 48 h, MC38 cells, 48 h, for OxPt/SN38 the OxPt IC50",10.2 ± 1.99 µM
same,IC50,[10]; Mus musculus,3.18 ± 1.01 µM
same,IC50,"[11]; Mus musculus, Panc02, 48 h",14.6 ± 4.87 µM
same,time to reach equilibrium binding to LDL,[12],≤ 1 h
same,binding to LDL,[12],74.5±3.6%
same,cytotoxicity relative to irinotecan,[13],5-10 times
CC[C@@]1(OC(=O)OCCSSCCOC(=O)O[C@H]2CC[C@@]3(C)C(=CC[C@H]4[C@@H]5CC[C@H]([C@H](C)CCCC(C)C)[C@@]5(C)CC[C@@H]43)C2)C(=O)OCc2c1cc1n(c2=O)Cc2cc3ccccc3nc2-1 [Chol-SS-CPT],PDI,[14],0.434
same,Z-Average (nm),[14],263.2 nm
CCc1c2c(nc3ccc(OC(=O)OC(C)(C)C)cc13)-c1cc3c(c(=O)n1C2)COC(=O)[C@@]3(CC)OC(=O)OCCSSCCOC(=O)O[C@H]1CC[C@@]2(C)C(=CC[C@H]3[C@@H]4CC[C@H]([C@H](C)CCCC(C)C)[C@@]4(C)CC[C@@H]32)C1 [Chol-SS-SN38-Boc],PDI,[14],0.211
same,Z-Average (nm),[14],96.79 nm
CCc1c2c(nc3ccc(OC(=O)OCCSSCCOC(=O)O[C@H]4CC[C@@]5(C)C(=CC[C@H]6[C@@H]7CC[C@H]([C@H](C)CCCC(C)C)[C@@]7(C)CC[C@@H]65)C4)cc13)-c1cc3c(c(=O)n1C2)COC(=O)[C@@]3(CC)O[Si](C)(C)C [Chol-SS-SN38],PDI,[14],0.38
same,Z-Average (nm),[14],172.3 nm
"CC(=O)O[C@@]12CO[C@@H]1C[C@H](O)[C@@]1(C)C(=O)[C@H](O)C3=C(C)[C@@H](OC(=O)[C@H](O)[C@@H](NC(=O)OC(C)(C)C)c4ccccc4)C[C@@](O)([C@@H](OC(=O)c4ccccc4)[C@H]21)C3(C)C [DTX, docetaxel]",IC50,"[1]; Homo sapiens, NCI-H460, 48 h",3.69 µM
same,IC50,[2]; Mus musculus,4.7 µM
same,percentage of apoptosis,[3],3.30%
"Nc1ccn([C@@H]2O[C@H](CO)[C@@H](O)C2(F)F)c(=O)n1 [GEM, gemcitabine]",IC50,"[10]; Mus musculus, KPC cells, read-out: IC50",0.67 ± 0.18 µM
same,IC50,"[11]; Mus musculus, Panc02 cells, 48 h, read-out: IC50",0.11 ± 0.03 µM
"CCc1c2c(nc3ccc(OC(=O)N4CCC(N5CCCCC5)CC4)cc13)-c1cc3c(c(=O)n1C2)COC(=O)[C@]3(O)CC [Irinotecan, irinotecan]",IC50,"[8]; Mus musculus, CT26, 48 h, read-out: IC50",79.4 ± 6.94 µM
same,IC50,"[9]; Mus musculus, MC-38, 48 h, read-out: IC50",88.4 ± 7.48 µM
same,IC50,[15],~80 µM
"O=C1[O][Pt]2([NH][C@@H]3CCCC[C@H]3[NH]2)[O]C1=O [OxPt, oxaliplatin]",IC50,[8]; [20],9.11 ± 0.72 µM
same,IC50,[9]; [21],11.4 ± 1.68 µM
same,early apoptotic Annexin V+/PI− cells,[16],8.0±0.6%
same,percentage of apoptosis,[16],12.1%
same,IC50,"[10]; KPC cells, read-out: IC50",5.94 ± 1.73 µM
same,IC50,[11]; [22],14 ± 4.88 µM
"CCc1c2c(nc3ccc(O)cc13)-c1cc3c(c(=O)n1C2)COC(=O)C3(CC)OC(=O)OC(C)(C)C (stereo not shown) [SN38-Boc, 20-O-Boc-SN38]",cytotoxicity,[17]; concentrations up to 300 μM,no cytotoxicity
"CCc1c2c(nc3ccc(O)cc13)-c1cc3c(c(=O)n1C2)COC(=O)[C@@]3(CC)O[Si](C)(C)C [SN38-TMS, 20-O-Trimethylsilyl SN38]",SN38 released from SN38-TMS,"[18]; pH 7.4, 24 h",26%
same,SN38 released from SN38-TMS,"[18]; pH 7.4, 48 h",63%
same,SN38-TMS converted to SN38,[18]; 24 h,70%
same,SN38-TMS converted to SN38,[18]; 48 h,92%
CCc1c2c(nc3ccc(O)cc13)-c1cc3c(c(=O)n1C2)COC(=O)[C@]3(O)CC [SN38],distribution in HDL,[7],14%
same,distribution in LDL fraction,[7],17%
same,distribution in albumin fraction,[7],69%
same,IC50,[8]; [20],0.22 ± 0.05 µM
same,IC50,[9]; [21],0.24 ± 0.08 µM
same,early apoptotic Annexin V+/PI− cells,[16],25.7±1.5%
same,percentage of apoptosis,[16],34.8%
same,IC50,"[10]; KPC cells, read-out: IC50",0.3 ± 0.09 µM
same,IC50,[11]; [22],0.17 ± 0.12 µM
same,IC50 of SN38,[17]; cell line not stated,0.086 µg/mL
same,Log P,[19],3.37
same,binding to LDL,[12],17.1±1.5%
CC(C)CCC[C@@H](C)[C@H]1CC[C@H]2[C@@H]3CC=C4C[C@@H](O)CC[C@]4(C)[C@H]3CC[C@]12C [cholesterol],Log P,[19],7.02
CCc1c2c(nc3ccc(OC(=O)N4CCC(N5CCCCC5)CC4)cc13)-c1cc3c(c(=O)n1C2)COC(=O)[C@]3(O)CC [irinotecan hydrochloride],Log P,[19],−0.45
gemcitabine monophosphate [GMP],IC50,"[10]; KPC cells, read-out: IC50",0.3 ± 0.07 µM
same,IC50,[11]; [22],0.06 ± 0.02 µM
